Test results: patent US6545182B2, “Methods and compositions for modulating alpha adrenergic receptor activity” (Allergan Sales, Inc., priority 2000, dated 2003)

Assays:
Assay type in all cases: cell-based
[1] = target: T1, alpha 2B adrenergic receptor (Homo sapiens, UniProt P18089); test: RSAT (Receptor Selection and Amplification Technology) assay, alpha 2B; details: for EC50: NIH-3T3 cells cotransfected with receptor and Gq/i5; for efficacy or intrinsic activity (value in parentheses) Alpha 2B: ratio of maximal effect to that of standard full agonist brimonidine
T1 construct: expressed in transfected cells; host or cells: NIH-3T3 cells, transient cotransfection by calcium phosphate
T1 sequence (P18089 1-450): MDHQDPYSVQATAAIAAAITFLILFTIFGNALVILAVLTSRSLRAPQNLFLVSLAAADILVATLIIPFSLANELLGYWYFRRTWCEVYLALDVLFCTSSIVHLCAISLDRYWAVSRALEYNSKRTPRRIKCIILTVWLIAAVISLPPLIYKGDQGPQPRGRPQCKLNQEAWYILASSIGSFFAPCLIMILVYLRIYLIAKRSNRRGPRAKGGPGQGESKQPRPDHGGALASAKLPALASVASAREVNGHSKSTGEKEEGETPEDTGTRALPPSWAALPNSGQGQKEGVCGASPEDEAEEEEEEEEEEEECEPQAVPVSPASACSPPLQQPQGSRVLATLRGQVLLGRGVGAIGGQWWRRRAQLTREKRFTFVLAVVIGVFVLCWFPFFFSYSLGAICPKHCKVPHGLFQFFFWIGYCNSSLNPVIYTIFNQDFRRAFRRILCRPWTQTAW
Procedure: (§1) Activity was measured using the RSAT (Receptor Selection and Amplification Technology) assay, developed by Receptor Technologies, Inc. of Winooski, Vt. (now Acadia Pharmaceuticals of San Diego, Calif.), adapted for use with recombinant alpha2 adrenergic receptors in collaboration with Allergan. The assay measures receptor-mediated loss of contact inhibition that results in selective proliferation of receptor-containing cells in a mixed population of confluent cells. The increase in cell number is assessed with an appropriate transfected marker gene such as β-galactosidase, the activity of which can be easily measured in a 96-well format. Receptors that activate the G protein, Gq, elicit this response. Alpha2 receptors, which normally couple to Gi, activate the RSAT response when coexpressed with a hybrid Gq protein that has a Gi receptor recognition domain, called Gq/i5.
(§2) The assay is conducted as follows. NIH-3T3 cells are plated at a density of 2×10^6 cells in 15 cm dishes and maintained in Dulbecco's modified Eagle's medium supplemented with 10% calf serum. One day later, cells are cotransfected by calcium phosphate precipitation with mammalian expression plasmids encoding p-SV-β-galactosidase (5-10 μg), receptor (1-2 μg) and G protein (1-2 μg). 40 μg salmon sperm DNA may also be included in the transfection mixture to increase transfection efficiency. Fresh media is added on the following day and 1-2 days later, cells are harvested and frozen in 50 assay aliquots. Transfectant cells are thawed and 100 μl added to 100 μl aliquots of various concentrations of drugs in triplicate in 96-well dishes. Incubations continue 72-96 hr at 37°. After washing with phosphate-buffered saline, β-galactosidase enzyme activity is determined by adding 200 μl of the chromogenic substrate (consisting of 3.5 mM o-nitrophenyl-β-D-galactopyranoside and 0.5% of the non-ionic surfactant nonidet P-40 in phosphate buffered saline), incubating overnight at 30° and measuring optical density at 420 nm. The absorbency is a measure of enzyme activity, which depends on cell number and reflects a receptor-mediated cell proliferation. The EC50 and maximal effect of each drug at each alpha2 receptor is determined. The efficacy or intrinsic activity is calculated as a ratio of the maximal effect of the drug to the maximal effect of a standard full agonist for each receptor subtype. Brimonidine, also called UK14304, is used as the standard agonist for the alpha2A, alpha2B and alpha2C receptors. The RSAT assay is also discussed in Messier et al. (1995) High throughput assays of cloned adrenergic, muscarinic, neurokinin and neurotrophin receptors in living mammalian cells, Pharmacol. Toxicol. 76:308-11; see also Conklin et al. (1993) Substitution of three amino acids switches receptor specificity of Gqα to that of Giα, Nature 363:274-6; Both of these papers are incorporated by reference herein.

[2] = target: T2, alpha 2A adrenergic receptor (Homo sapiens, UniProt P08913); test: RSAT (Receptor Selection and Amplification Technology) assay, alpha 2A; details: for EC50: NIH-3T3 cells cotransfected with receptor and Gq/i5
T2 construct: expressed in transfected cells; host or cells: NIH-3T3 cells, transient cotransfection by calcium phosphate
T2 sequence (P08913 1-465): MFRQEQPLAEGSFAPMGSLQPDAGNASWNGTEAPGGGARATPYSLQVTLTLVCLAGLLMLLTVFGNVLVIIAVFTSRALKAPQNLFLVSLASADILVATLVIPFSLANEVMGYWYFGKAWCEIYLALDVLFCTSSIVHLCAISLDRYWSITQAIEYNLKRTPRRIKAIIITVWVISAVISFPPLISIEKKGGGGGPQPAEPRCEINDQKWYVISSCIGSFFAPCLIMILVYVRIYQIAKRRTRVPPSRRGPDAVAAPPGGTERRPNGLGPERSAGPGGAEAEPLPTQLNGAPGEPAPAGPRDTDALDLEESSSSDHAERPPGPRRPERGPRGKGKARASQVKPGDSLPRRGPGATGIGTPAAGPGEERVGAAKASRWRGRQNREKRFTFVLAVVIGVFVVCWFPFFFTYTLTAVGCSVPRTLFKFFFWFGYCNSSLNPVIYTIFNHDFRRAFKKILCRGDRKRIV
Procedure: as §1, §2

[3] = target: T3, alpha 2C adrenergic receptor (Homo sapiens, UniProt P18825); test: RSAT (Receptor Selection and Amplification Technology) assay, alpha 2C; details: for EC50: NIH-3T3 cells cotransfected with receptor and Gq/i5; for efficacy or intrinsic activity (value in parentheses) Alpha 2C: ratio of maximal effect to that of standard full agonist brimonidine
T3 construct: expressed in transfected cells; host or cells: NIH-3T3 cells, transient cotransfection by calcium phosphate
T3 sequence (P18825 1-462): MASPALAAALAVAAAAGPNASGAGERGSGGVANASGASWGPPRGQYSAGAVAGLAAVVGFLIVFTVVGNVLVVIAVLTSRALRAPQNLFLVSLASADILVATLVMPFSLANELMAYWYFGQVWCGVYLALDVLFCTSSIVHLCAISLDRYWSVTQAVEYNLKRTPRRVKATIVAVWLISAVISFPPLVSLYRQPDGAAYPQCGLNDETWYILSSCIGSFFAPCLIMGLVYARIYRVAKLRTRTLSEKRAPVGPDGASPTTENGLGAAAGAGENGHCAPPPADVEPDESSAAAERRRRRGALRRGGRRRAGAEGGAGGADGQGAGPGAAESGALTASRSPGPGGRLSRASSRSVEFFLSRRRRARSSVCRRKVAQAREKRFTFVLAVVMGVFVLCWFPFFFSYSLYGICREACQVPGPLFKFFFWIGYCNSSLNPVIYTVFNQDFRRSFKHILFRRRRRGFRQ
Procedure: as §1, §2

Structure (SMILES) | EC50 [1] | efficacy or intrinsic activity (value in parentheses) Alpha 2B [1] | EC50 [2] | EC50 [3] | efficacy or intrinsic activity (value in parentheses) Alpha 2C [3] | efficacy or intrinsic activity (value in parentheses) Alpha 2A ([2]; ratio of maximal effect to that of standard full agonist brimonidine)
Cc1cccc(CNC(=S)NCCO)c1 | 913 nM | 0.9 | ≥ 210000 nM | 602 nM | 0.3 | 
COc1cccc(CNC(=S)NCCO)c1F | 429 nM | 1.04 | > 2000 nM | > 3000 nM |  | 
OCCNC(=S)NCc1cc(Br)cc(Cl)c1F | 117 nM | 1.13 | ≥ 210000 nM | > 2000 nM |  | 
OCCNC(=S)NCc1c(F)cccc1C(F)(F)F | 137 nM | 0.68 | ≥ 210000 nM | 617 nM | 0.37 | 
OCCNC(=S)NCc1ccc(F)cc1C(F)(F)F | 478 nM | 0.72 | ≥ 210000 nM | > 2000 nM |  | 
Cc1cc(Br)cc(CNC(=S)NCCO)c1F | 240 nM | 0.8 | ≥ 210000 nM | 1490 nM | 0.37 | 
Cc1cc(CNC(=S)NCCO)c(F)c(F)c1F | 120 nM | 0.92 | ≥ 210000 nM | ≥ 210000 nM |  | 
OCCNC(=S)NCc1c(F)cc(F)c(Cl)c1F | 281 nM | 0.58 | ≥ 210000 nM | ≥ 210000 nM |  | 
OCCNC(=S)NCc1cccc(C(F)(F)F)c1 | 495 nM | 0.73 | ≥ 210000 nM | ≥ 210000 nM |  | 
OCCNC(=S)NCc1c(F)cccc1F | 462 nM | 0.45 | ≥ 210000 nM | 5060 nM | 0.4 | 
OCCNC(=S)NCc1cccc(Br)c1 | 14 nM | 0.9 | 295 nM | ≥ 210000 nM |  | 0.3
OCCNC(=S)NCc1cc(I)ccc1F | 49 nM | 0.76 | ≥ 210000 nM | 322 nM | 0.68 | 
OCCNC(=S)NCc1cccc(OC(F)(F)F)c1 | 2390 nM | 0.55 | ≥ 210000 nM | ≥ 210000 nM |  | 
Cc1cc(Cl)cc(CNC(=S)NCCO)c1F | 37.5 nM | 1.02 | ≥ 210000 nM | 181 nM | 0.62 | 
OCCNC(=S)NCc1cc(Br)cc(Br)c1F | 116 nM | 1.23 | ≥ 210000 nM | 1410 nM | 0.58 | 
OCCNC(=S)NCc1ccc(F)cc1Cl | 579 nM | 0.75 | ≥ 210000 nM | ≥ 210000 nM |  | 
OCCNC(=S)NCc1cc(F)ccc1Br | 20 nM | 1.0 | ≥ 210000 nM | 137 nM | 0.63 | 
COc1cccc(F)c1CNC(=S)NCCO | 235 nM | 0.92 | ≥ 210000 nM | 406 nM | 0.43 | 
OCCNC(=S)NCc1ccc(F)c(Cl)c1 | 99 nM | 0.6 | ≥ 210000 nM | ≥ 210000 nM |  | 
OCCNC(=S)NCc1c(Cl)cccc1Cl | 380 nM | 0.93 | ≥ 210000 nM | ≥ 210000 nM |  | 
OCCNC(=S)NCc1c(F)c(F)cc(F)c1F | 243 nM | 0.9 | ≥ 210000 nM | 2370 nM | 0.51 | 
OCCNC(=S)NCc1ccccc1Br | 10 nM | 0.8 | ≥ 210000 nM | 273 nM | 0.4 | 
OCCNC(=S)NCc1c(Cl)ccc(Cl)c1F | 89 nM | 0.92 | ≥ 210000 nM | 1420 nM | 0.78 | 
